According to patent US20130156845A1, “LIPID FORMULATED SINGLE STRANDED RNA” (ALNYLAM PHARMACEUTICALS, INC., priority 2010, published 2013):
Read-outs that look alike come from different tables or passages of the source. Strand notation (5' to 3'): a small letter for the sugar, then the base; units joined by * are phosphorothioate-linked, units joined directly phosphodiester-linked; [ ] holds rarer units or linkages, { } end groups; capitals alone tell only the bases. {PS2} = PS2 group (structure drawn in the publication); {PS} = PS group (structure drawn in the publication); e = 2'-O-(2-methoxyethyl) (MOE); m = 2'-O-methyl; {P} = phosphate; f = 2'-fluoro

Assays:
PTEN [1] = assay: Liver PTEN mRNA in Balb/c mice, unformulated oligomeric compounds (Example 70); format: in vivo, mouse; conditions: 48 h
Experimental: Six-week-old male Balb/c mice (Jackson Laboratory, Bar Harbor, Me.) were injected intraperitenially with a single dose of 75 mg/kg of one of the three oligomeric compounds above or with saline control. Each dose group consisted of four animals. The mice were sacrificed 48 hours following administration. Livers were collected and PTEN mRNA levels were assessed using real-time PCR and RIBOGREEN® RNA quantification reagent (Molecular Probes, Inc. Eugene, Oreg.) according to standard protocols. PTEN mRNA levels were determined relative to total RNA (using Ribogreen), and normalized to the saline-treated control. Results are listed below as the average % inhibition of PTEN mRNA expression for each treatment group, normalized to saline-injected control.

PTEN [2] = assay: PTEN mRNA reduction in HeLa cells, dose response (Example 64); format: cell-based, human; conditions: real-time PCR, 1.56-50 nM
Experimental: A dose response experiment was performed targeting PTEN in human HeLa cells to determine the effects of placement of sugar and internucleoside linkages within ssRNAs. More specifically, the modified ssRNAs were tested for their ability to reduce PTEN mRNA in cultured cells. The modified ssRNAs are shown below, and contain 2′-OMe and 2′-fluoro modified nucleosides, two 2′-O-MOE modified nucleosides at the 3′-terminus, and seven phosphorothioate linkages at the 3′-terminus of the ssRNAs.
HeLa cells were treated with ssRNAs shown below at concentrations of 1.56 nM, 3.13 nM, 6.25 nM, 12.5 nM, […] and 50 nM using methods described herein. Levels of mRNA were determined using real-time PCR methods as described herein. The IC50 for each ssRNA was determined.

[3] = ssRNA stability in hepatocyte cell homogenate assay (Example 65); format: in vitro ADME; conditions: mouse hepatocyte homogenate, LC-MS
Experimental: Hepatocytes were harvested from bal/c mice in ice-cold hepatocyte wash media (William E Media) with fetal bovine serum, sedimented by centrifugation at 1000 g for 8 minutes and then washed with hepatocyte wash media. Hepatocytes were homogenized with RIPA buffer (50 mM Tris pH 7.5, 10 mM MgCl2, 150 mM NaCl, 0.5% NP-40 alternative, one tablet of Roche protease inhibitor #11836170001), and centrifuged at 14000 g for 15 minutes at 4° C. and the supernatant was removed and stored in ice. Protein concentration (BSA mg/mL) was determined with Bradford assay and adjusted to a final protein concentration of 2 mg/mL by addition of Ripa buffer volume or cell homogenate volume.
[…] were homogenized in a homogenation buffer (20 mM Tris, pH 8, 20 mM EDTA and 0.1 M NaCl in 0.5% NP-40) at time points 0, 5, 10, 20, 30, 40 and 60 minutes (Exception: 06/408877 at time points 0, 15, 30, 60, 120 and 240 mins, 06/409044, at time points 0, 0.5, 1, 2, 4, 8, and 18 hours). An internal standard (18/355868, a 27-mer, 2′-O-methoxyethyl-modified phosphorothioate oligonucleotide, or 19/116847, a 5-10-5 gappmer, 2′-O-methoxyethyl-modified phosphorothioate oligonucleotide) with concentration at 20 ug/g was added prior to extraction. Tissue samples were extracted with 70 μL of NH4OH and 240 μL of phenol/chloroform/isoamyl alcohol (25:24:1). The supernatant was removed after centrifugation at 14000 rpm for 2 min. The remaining extractant was vortexed with an additional […] of water and the aqueous layer was removed and combined with the supernatant after centrifugation at 14000 rpm for 2 minutes.
Triethylammonium acetate solution at 1M ([…]) was added to the supernatant. The aqueous layer of the mixture was loaded onto the pre-conditioned Biotage™ Phenyl Solid Phase Extraction Plate (SPE plate) after centrifugation at 9000 rpm for 20 minutes. The SPE plate was washed several times with water. The sample was then eluted with 1.5 mL of 1% TEA in 90% MeOH and filtered through the Protein Precipitation Plate (Phenomenex™). The elutent was evaporated to dryness and diluted to 200 μL with 50% quenching buffer (8 M urea, 50 mM EDTA) and water before sample injection.
An Agilent 1100 Series LC/MSD system was connected in-line to a mass spectrometry. Mass spectrometer was operated in the electrospray negative ionization mode. The nebulizer nitrogen gas was set at […] and the drying nitrogen gas was set at 12 L/min. The drying temperature was 325° C. Samples (25 μL/well) were introduced via an auto sampler and reversed-phase chromatography was carried out with an XBridge OST C18 2.5 μm 2.1 mm×50 mm HPLC column using a flow rate of 300 μL/min at 55° C. The ion pair buffers consisted of A: 5 mM tributylammonium acetate (TBAA) in 20% acetonitrile and B: […] TBAA in 90% acetonitrile and the loading buffer was 25 mM TBAA in 25% Acetonitrile. Separation was performed on a 30% to 70% B in 9 min and then 80% B in 11 min gradient.
Quantitative analysis of oligonucleotide and internal standard by extracted ion chromatograms of the most abundant ions was performed using MSD ChemStation software. The results are expressed as half-time (T1/2) in the table below.

PTEN [4] = assay: In vivo evaluation of ssRNA formulated in lipid particle LNP06, liver PTEN mRNA (Example 77); parameters: species or system mouse; conditions: ssRNA formulated in LNP06, 4.5 mg/kg tail vein, C57BL/6 mice, liver PTEN mRNA normalized to GAPDH, 2 days post injection
Experimental: In accordance with the present disclosure, oligomeric compounds were synthesized and tested for their ability to reduce PTEN. C57BL/6 mice (Charles River Labs, MA) received either saline or LNP formulated single stranded RNA via tail vein injection at a volume of 0.01 mL/g and the single stranded RNA dose is 4.5 mg/kg. 25 groups of female mice and 9 modified ssRNAs targeting PTEN were formulated in LNP06 and tested. To determine liver mRNA levels of PTEN, 2 days post injection, animals were sacrificed and livers were harvested and snap frozen in liquid nitrogen. Liver lysates were prepared from the frozen tissues and liver mRNA levels of PTEN normalized to GAPDH were quantified using a branched DNA assay (QuantiGene Assay, Panomics, Calif.).

human PTEN = assay: PTEN expression in HeLa cells, ssRNAs vs siRNAs (Example 62); format: cell-based
Experimental: A series of 5′ and 2′ bis-substituted modified oligomeric compounds were prepared as single strand RNAs (ssRNAs). The antisense (AS) strands listed below were designed to target human PTEN, and each was also assayed as part of a duplex with the same sense strand (ISIS 341401, shown below) for their ability to reduce PTEN expression levels. HeLa cells were treated with the single stranded or double stranded oligomeric compounds created with the antisense compounds shown below using methods described herein. The IC50's were calculated using the linear regression equation generated by plotting the normalized mRNA levels to the log of the concentrations used.

PTEN [5] = assay: PTEN mRNA reduction in HeLa cells, dose response (Example 72); format: cell-based, human; conditions: percent inhibition of PTEN mRNA, 0.167-50 nM
Experimental: In accordance with the present disclosure, oligomeric compounds were synthesized and tested for their ability to reduce PTEN expression over a range of doses. Human HeLa cells were treated with the following oligomeric compounds. A dose comparison was evaluated with dose concentrations of 0.167, 0.5, 1.5, 5, 15 and 50 nM using methods described herein. Expression levels of PTEN were determined using real-time PCR and normalized to RIBOGREEN™ using methods described herein. The percent inhibition of PTEN mRNA was determined and the resulting dose-response curves were used to determine the IC50. The IC50s are listed below.

Substance	IC50 (PTEN [2])	T1/2 Test 1 [3]	% Kd (PTEN [4])	further results
^meCeTeGe^meCeTeAG^meC^meCT^meCTGGATeTeTeGeAe [ISIS 116847, reference compound]	–	–	–	inhibition of PTEN (PTEN [1]; 75 mg/kg, liver): potent inhibitor of PTEN; % inhibition (PTEN [1]; liver PTEN mRNA, single i.p. dose 75 mg/kg, normalized to saline control): 76%
UfUfGfUfCfUfCmUfGmGfUmCfCmUfUmAfCmUfUmAeAe (UUGUCUCUGGUCCUUACUUAA; sugars from the 5' end ffffffmfmfmfmfmfmfmee, backbone not given here) [ISIS 407047, modified ssRNA targeting PTEN]	3.5 nM	6 min	–	–
P-UfUfGfUfCfUmCmUfGfGmUmCfCfUfUfAfCmUmUmTeTe (antisense UUGUCUCUGGUCCUUACUUTT; 5'-phosphate, modified nucleotides, chemistry not fully specified) [ISIS 409062, modified ssRNA targeting PTEN]	8.6 nM	17 min	–	–
P-USSUfGmUfCmUfCmUfGmGfUmCfCmUfUmAfCmUfUmAeAe (antisense TUGUCUCUGGUCCUUACUUAA; 5'-phosphate, 2'-F/2'-OMe, MOE modifications, chemistry not fully specified) [ISIS 467088, modified ssRNA targeting PTEN]	–	–	50%	–
P-TmoeUfGmUfCmUfCmUfGmGfUmCfCmUfUmAfCmUfUmAeAe (antisense {P}-eT*fU*mGfU*mCfU*mCfU*mGfG*mUfC*mCfU*mU*fA*mC*fU*mU*eA*eA) [A-53286, modified ssRNA targeting PTEN]	–	–	67%	–
P-TdUfGmUfCmUfCmUfGmGfUmCfCmUfUmAfCmUfUmAeAe (antisense TUGUCUCUGGUCCUUACUUAA; 5'-phosphate, chemical modifications, chemistry not fully specified) [ISIS 435397, modified ssRNA targeting PTEN]	–	–	44%	EC50 (human PTEN; antisense strand duplexed with sense strand ISIS 341401, PTEN mRNA, read-out: EC50 (nM) siRNA): 0.4 nM; EC50 (human PTEN; single stranded antisense compound, PTEN mRNA, read-out: EC50 (nM) ssRNA): 2 nM; IC50 (PTEN [5]): 2 nM
P-UmUfGmUfCmUfCmUfGmGfUmCfCmUfUmAfCmUfUmAeAe (antisense UUGUCUCUGGUCCUUACUUAA; sugars from the 5' end mfmfmfmfmfmfmfmfmfmee, 5' {P}, backbone not given here) [ISIS 409044, modified ssRNA targeting PTEN]	10.5 nM	240 min	–	T1/2 Test 2 [3]: 258 min
P-UfUfGfUfCfUfCmUfGmGfUmCfCmUfUmAfCmUfUmTeTe (antisense UUGUCUCUGGUCCUUACUUTT; 5'-phosphate, modified nucleotides, chemistry not fully specified) [ISIS 409049, modified ssRNA targeting PTEN]	16.2 nM	13 min	–	–
PS2-TmoeUfGmUfCmUfCmUfGmGfUmCfCmUfUmAfCmUfUmAeAe (antisense {PS2}-eT*fU*mGfU*mCfU*mCfU*mGfG*mUfC*mCfU*mU*fA*mC*fU*mU*eA*eA) [A-59890, modified ssRNA targeting PTEN]	–	–	31%	–
PS-TmoeUfGmUfCmUfCmUfGmGfUmCfCmUfUmAfCmUfUmAeAe (antisense {PS}-eT*fU*mGfU*mCfU*mCfU*mGfG*mUfC*mCfU*mU*fA*mC*fU*mU*eA*eA) [A-59889, modified ssRNA targeting PTEN]	–	–	45%	–
P-UfUfGfUfCfUmCmUfGfGmUmCfCfUfUfAfCmUmUmAeAe (antisense UUGUCUCUGGUCCUUACUUAA; sugars from the 5' end fffffmmffmmfffffmmmee, 5' {P}, backbone not given here) [ISIS 408874, modified ssRNA targeting PTEN]	6 nM	22 min	–	T1/2 Test 2 [3]: 18 min
P-UmUfGfUfCfUmCmUfGfGmUmCfCfUfUfAfCmUmUmAeAe (antisense UUGUCUCUGGUCCUUACUUAA; sugars from the 5' end mffffmmffmmfffffmmmee, 5' {P}, backbone not given here) [ISIS 408877, modified ssRNA targeting PTEN]	7 nM	30 min	–	T1/2 Test 2 [3]: 24 min
